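Briefly, cells in 96-well plates were exposed to five compound concentrations for 48 h, and endpoints were estimated by linear interpolation. Here, GI50 denotes the concentration required for 50% inhibition of growth.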 Active and inactive are the calls of the source. No stated cut-off is given here; in the data, active = GI50 up to about 1.1 µM and inactive = higher.
Key:
Experiment in all cases: NCI tumour cell line growth inhibition, 48 h
[1] = tested on: SK-MEL-5
[2] = tested on: OVCAR-3
[3] = tested on: SR
[4] = tested on: NCI/ADR-RES
[5] = tested on: SNB-19
[6] = tested on: UACC-257
[7] = tested on: HL-60
[8] = tested on: K562
[9] = tested on: MCF7
[10] = tested on: IGROV-1
[11] = tested on: CCRF-CEM
[12] = tested on: PC-3
[13] = tested on: MDA-MB-231
[14] = tested on: UACC-62
[15] = tested on: HOP-92
[16] = tested on: ACHN
[17] = tested on: HCT-15
[18] = tested on: RXF 393
[19] = tested on: NCI-H522
[20] = tested on: BT-549

| SMILES | GI50 [1] | GI50 [2] | GI50 [3] | GI50 [4] | GI50 [5] | GI50 [6] | GI50 [7] | GI50 [8] | GI50 [9] | GI50 [10] | GI50 [11] | GI50 [12] | GI50 [13] | GI50 [14] | GI50 [15] | GI50 [16] | GI50 [17] [µM] | GI50 [18] | GI50 [19] | GI50 [20] |
| --- | --- | --- | --- | --- | --- | --- | --- | --- | --- | --- | --- | --- | --- | --- | --- | --- | --- | --- | --- | --- |
| Cc1ccc(-c2cc(-c3c(C)nn(C)c(=O)c3N)n[nH]2)cc1 | > 100 µM (inactive) | 88.3 µM (inactive) | > 100 µM (inactive) | > 100 µM (inactive) | > 100 µM (inactive) | > 100 µM (inactive) | > 100 µM (inactive) | > 100 µM (inactive) | > 100 µM (inactive) | > 100 µM (inactive) | > 100 µM (inactive) | > 100 µM (inactive) | > 100 µM (inactive) | > 100 µM (inactive) | > 100 µM (inactive) | > 100 µM (inactive) | > 100 | > 100 µM (inactive) |  |  |
| O=C1[C@H](Cl)[C@H]2c3cc4ccccc4nc3Oc3ccccc3N12 | 30.9 µM (inactive) | 48.4 µM (inactive) | 20.9 µM (inactive) |  | 46.8 µM (inactive) | 50.4 µM (inactive) | 25.5 µM (inactive) | > 10 µM (inactive) |  | 32.7 µM (inactive) | 61 µM (inactive) |  |  | 18.3 µM (inactive) |  | 28.4 µM (inactive) | 43 |  | 24.3 µM (inactive) |  |
| CC1=C(O)C(=O)C2C(=O)C1C1Cc3ccccc3C21 (centres undefined) | > 100 µM (inactive) | > 100 µM (inactive) | > 100 µM (inactive) |  | > 100 µM (inactive) |  | > 100 µM (inactive) | > 100 µM (inactive) |  | > 100 µM (inactive) | > 100 µM (inactive) |  |  | > 100 µM (inactive) | > 100 µM (inactive) | > 100 µM (inactive) | > 100 | > 100 µM (inactive) | > 100 µM (inactive) |  |
| O=C1NC2c3c(I)sc(I)c3/C(=N\O)C2O1 (centres undefined) |  | 18.2 µM (inactive) | 29.9 µM (inactive) | 20.4 µM (inactive) | 21.7 µM (inactive) | 58.3 µM (inactive) | 20 µM (inactive) | 19.9 µM (inactive) | 33.8 µM (inactive) | 19.8 µM (inactive) | 24.3 µM (inactive) | 39.2 µM (inactive) | 24 µM (inactive) | 20.7 µM (inactive) | 19.2 µM (inactive) | 17 µM (inactive) | 24.4 | 12.7 µM (inactive) |  |  |
| O=[N+]([O-])[C@@H]1C2C=CC(C2)[C@H]1Cl (some centres undefined) | > 100 µM (inactive) | > 100 µM (inactive) | > 100 µM (inactive) |  | > 100 µM (inactive) | > 100 µM (inactive) | > 100 µM (inactive) | > 100 µM (inactive) |  | > 100 µM (inactive) | > 100 µM (inactive) |  |  | > 100 µM (inactive) | > 100 µM (inactive) | > 100 µM (inactive) | > 100 | > 100 µM (inactive) | > 100 µM (inactive) |  |
| c1ccc2c(c1)OCCOCCOc1ccccc1OCCO2 | 68.2 µM (inactive) | 28.2 µM (inactive) |  |  | 64.6 µM (inactive) | 84.7 µM (inactive) | 24.8 µM (inactive) | 28.4 µM (inactive) |  | 71.8 µM (inactive) | 34.4 µM (inactive) |  |  | 51.2 µM (inactive) | 51.5 µM (inactive) | 51.9 µM (inactive) | 43.9 | 60.1 µM (inactive) | 32.7 µM (inactive) |  |
| CC1=C(c2cc(C(=O)Nc3ccc(Cl)c(Cl)c3)nc(N)n2)Sc2ccccc2N1 | > 100 µM (inactive) | > 100 µM (inactive) | > 100 µM (inactive) |  | > 100 µM (inactive) | > 100 µM (inactive) | > 100 µM (inactive) | 62.5 µM (inactive) |  | > 100 µM (inactive) | > 100 µM (inactive) |  |  | > 100 µM (inactive) | > 100 µM (inactive) | > 100 µM (inactive) | > 100 | 89.7 µM (inactive) | > 100 µM (inactive) |  |
| O=C(O)c1c2c(c(C(=O)O)c3ccccc13)-c1ccccc1-2 |  | 27.5 µM (inactive) | 55.6 µM (inactive) |  | 36.6 µM (inactive) | 47.5 µM (inactive) | 36.4 µM (inactive) | 33.6 µM (inactive) |  | > 10 µM (inactive) | 32.5 µM (inactive) |  |  | 22.9 µM (inactive) | 23.3 µM (inactive) | 30.8 µM (inactive) |  | 21.9 µM (inactive) | 35.2 µM (inactive) |  |
| COc1nc(NC2OCC(OC(C)=O)C(OC(C)=O)C2OC(C)=O)c(-c2csc(N)n2)c(=O)n1C (centres undefined) | > 100 µM (inactive) | > 100 µM (inactive) | > 100 µM (inactive) |  | > 100 µM (inactive) | > 100 µM (inactive) | > 100 µM (inactive) | > 100 µM (inactive) |  | > 100 µM (inactive) | > 100 µM (inactive) |  |  | > 100 µM (inactive) | > 100 µM (inactive) | > 100 µM (inactive) | > 100 |  | > 100 µM (inactive) |  |
| c1ccc2c(c1)SCCC2NC1=NCCO1 (centres undefined) | > 100 µM (inactive) | > 100 µM (inactive) | > 100 µM (inactive) | > 100 µM (inactive) | > 100 µM (inactive) |  | > 100 µM (inactive) | > 100 µM (inactive) | > 100 µM (inactive) | > 100 µM (inactive) | > 100 µM (inactive) | > 100 µM (inactive) | > 100 µM (inactive) | > 100 µM (inactive) |  | > 100 µM (inactive) | > 100 | > 100 µM (inactive) | > 100 µM (inactive) |  |
| CC1=CC(=O)c2c(C=O)c(O)c(O)c(C(C)C)c2C1=O | 0.494 µM (active) |  | 22.8 µM (inactive) |  | 39.5 µM (inactive) |  | 25.6 µM (inactive) | 26.1 µM (inactive) |  | 22.5 µM (inactive) | 14.7 µM (inactive) |  |  | 20.3 µM (inactive) | 20.9 µM (inactive) | 16.8 µM (inactive) | 26.2 | 14 µM (inactive) | 12.4 µM (inactive) |  |
| O=C1CC(c2ccccc2)NCN1 (centres undefined) | > 100 µM (inactive) | > 100 µM (inactive) | > 100 µM (inactive) |  | > 100 µM (inactive) | > 100 µM (inactive) | > 100 µM (inactive) | > 100 µM (inactive) |  | > 100 µM (inactive) | > 100 µM (inactive) |  |  | > 100 µM (inactive) |  | > 100 µM (inactive) | > 100 | > 100 µM (inactive) | > 100 µM (inactive) |  |
| CC(=O)OCc1cc2c(s1)C(=O)c1sccc1C2=O | 0.0426 µM (active) | 0.223 µM (active) | 1.89 µM (inactive) | 0.2 µM (active) | 0.177 µM (active) | 0.0986 µM (active) | 0.29 µM (active) | 0.277 µM (active) | 0.208 µM (active) | 1.46 µM (inactive) | 0.383 µM (active) | 0.194 µM (active) | 0.237 µM (active) | 0.166 µM (active) | 0.528 µM (active) | 0.0881 µM (active) | 0.156 | 0.157 µM (active) | 0.147 µM (active) |  |
| COc1cc2c(c(OC)c1OC)-c1ccc(SC)c(=O)cc1C(CC(=O)Oc1ccc(F)cc1)C2 (centres undefined) | 0.193 µM (active) | 0.134 µM (active) | 0.0466 µM (active) |  | 0.255 µM (active) | 38.9 µM (inactive) | 0.043 µM (active) | 0.15 µM (active) |  | 0.605 µM (active) | 0.238 µM (active) |  |  | 0.129 µM (active) | 1.21 µM (inactive) | 0.18 µM (active) | 0.26 | 0.0365 µM (active) | 0.116 µM (active) |  |
| CCc1cc(CCC(=O)Nc2c(C)cccc2C)n[nH]1 | > 100 µM (inactive) | > 100 µM (inactive) | > 100 µM (inactive) |  | > 100 µM (inactive) | > 100 µM (inactive) | > 100 µM (inactive) | > 100 µM (inactive) |  | > 100 µM (inactive) | > 100 µM (inactive) |  |  | > 100 µM (inactive) | > 100 µM (inactive) | > 100 µM (inactive) | > 100 | > 100 µM (inactive) | > 100 µM (inactive) |  |
| COC(=O)c1ccccc1NCc1cc(O)ccc1O | 19 µM (inactive) | 16.7 µM (inactive) | > 10 µM (inactive) | 19.2 µM (inactive) | 39 µM (inactive) | 15.6 µM (inactive) | 8 µM (inactive) | 19.6 µM (inactive) | 17.6 µM (inactive) | 25.9 µM (inactive) | 4.91 µM (inactive) | 17 µM (inactive) |  | 18.2 µM (inactive) | 17.7 µM (inactive) | 16.2 µM (inactive) | 18.8 | 15.9 µM (inactive) | 2.63 µM (inactive) | 2.71 µM (inactive) |
| COc1cc2c(cc1OC)[Se]c1cc(OC)c(OC)cc1[Se]2 | > 10 µM (inactive) | > 10 µM (inactive) | 4.74 µM (inactive) |  | > 10 µM (inactive) | > 10 µM (inactive) | 3.93 µM (inactive) | 6.64 µM (inactive) |  | > 10 µM (inactive) | > 10 µM (inactive) |  |  | > 10 µM (inactive) | 69 µM (inactive) | > 10 µM (inactive) | 5.3 | 15.1 µM (inactive) | 8.75 µM (inactive) |  |
| COc1c(O)c2c3c(cc(C)cc3c1C(C)C)OC2 | > 100 µM (inactive) | > 100 µM (inactive) | > 100 µM (inactive) |  | > 100 µM (inactive) | > 100 µM (inactive) | > 100 µM (inactive) | > 100 µM (inactive) |  | > 100 µM (inactive) | > 100 µM (inactive) |  |  | > 100 µM (inactive) | > 100 µM (inactive) | > 100 µM (inactive) | > 100 | > 100 µM (inactive) | > 100 µM (inactive) |  |
| O=C(CSc1nnc[nH]1)C[P+](c1ccccc1)(c1ccccc1)c1ccccc1 | > 100 µM (inactive) | 74.8 µM (inactive) |  |  | > 100 µM (inactive) | > 100 µM (inactive) | 31.7 µM (inactive) | 43.4 µM (inactive) |  | > 100 µM (inactive) | 78.2 µM (inactive) |  |  | 99.1 µM (inactive) | 22.9 µM (inactive) | > 100 µM (inactive) | > 100 | 61.4 µM (inactive) | 4.25 µM (inactive) |  |
